In patent US20040106216A1, “Method of measuring drug-metabolizing enzyme activity, method of evaluating inhibition of drug-metabolizing enzyme activity, and composition for these methods” (Toyo Boseki Kabushiki Kaisha, priority 2002, published 2004):
Positions count from the first letter of the chain named.

Tests used:
[1] = system: Pseudomonas-derived 17β-hydroxysteroid dehydrogenase; test: Inhibition of 17β-hydroxysteroid dehydrogenase, estrone substrate, estradiol enzyme immunoassay; assay type: biochemical; details: 0-20 μM final concentration, FIG. 8
[2] = target: human cytochrome P450 CYP2C9 (359Leu) (Homo sapiens, UniProt P11712, I359L); details: 30 μM dibenzylfluorescein; 0-1.2 μM final concentration; FIG. 20
Chain of human cytochrome P450 CYP2C9 (359Leu) (P11712 whole entry I359L): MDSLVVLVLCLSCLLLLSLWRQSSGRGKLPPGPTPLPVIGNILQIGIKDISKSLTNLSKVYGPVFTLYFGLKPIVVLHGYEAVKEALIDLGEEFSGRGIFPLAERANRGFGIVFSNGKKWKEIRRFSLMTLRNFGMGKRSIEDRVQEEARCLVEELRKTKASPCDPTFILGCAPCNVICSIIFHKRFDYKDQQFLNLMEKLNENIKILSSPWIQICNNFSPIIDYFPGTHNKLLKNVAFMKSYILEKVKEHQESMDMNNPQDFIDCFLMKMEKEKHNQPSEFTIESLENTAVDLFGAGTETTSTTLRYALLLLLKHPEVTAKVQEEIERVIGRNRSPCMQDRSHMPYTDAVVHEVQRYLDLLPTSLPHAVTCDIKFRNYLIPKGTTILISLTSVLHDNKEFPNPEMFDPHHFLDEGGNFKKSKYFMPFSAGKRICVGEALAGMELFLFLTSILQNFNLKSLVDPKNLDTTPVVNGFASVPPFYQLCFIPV
Description: (§1) Purified anti-fluorescein antibodies obtained using as the antigen a protein cross-linked using the X position of fluorescein were diluted with 50 mM carbonic acid buffer (pH 9.6) to a concentration of 1 μg/ml (antibody adsorption liquid), and 100 μL per well was poured into Corning Costar microtiter plates (polystyrene 96-well type). The surfaces were then sealed, and the plates left overnight at 4° C. The following day the antibody adsorption liquid was removed, and each well washed 3 times with 200 μL of 10 mM phosphoric acid buffer (pH 7.2, containing 150 mM NaCl). After washing, using 10 mM phosphoric acid buffer (pH 7.2, containing 150 mM NaCl: phosphoric acid buffer 1) as the base, each well was filled with 200 μL of a blocking solution containing 0.2% casein and 10% sucrose. After being filled with the blocking liquid the plates were left overnight at 4° C., and the following day the blocking liquid was removed and vacuum drying applied for 16 hours. The vacuum-dried plates were sealed in storage bags under reduced pressure, and stored at 4° C. prior to the following measurements.
(§2) A system expressing human cytochrome P450 CYP2C9 was constructed according to the methods of Goldstein et al (Goldstein J. A. et al, Biochemistry Vol. 33 pp 1743-1752 (1994)). A single nucleotide mutation (A→C) replacing isoleucine at 359 position with leucine was then introduced by ordinary methods. Two types of enzyme preparations, human cytochrome P450 CYP2C9 (359Ile) and (359Leu), were prepared by methods described in the literature and used in the following experiment.
(§3) The two human cytochrome P450 CYP2C9 preparations were diluted with 100 mM phosphoric acid buffer (pH 7.2, containing 0.1% BSA: phosphoric acid buffer 2), and concentrations sequences prepared. […]

[3] = target: human cytochrome P450 CYP2C9 (359Ile) (Homo sapiens, UniProt P11712)
Chain of human cytochrome P450 CYP2C9 (359Ile) (P11712 whole entry): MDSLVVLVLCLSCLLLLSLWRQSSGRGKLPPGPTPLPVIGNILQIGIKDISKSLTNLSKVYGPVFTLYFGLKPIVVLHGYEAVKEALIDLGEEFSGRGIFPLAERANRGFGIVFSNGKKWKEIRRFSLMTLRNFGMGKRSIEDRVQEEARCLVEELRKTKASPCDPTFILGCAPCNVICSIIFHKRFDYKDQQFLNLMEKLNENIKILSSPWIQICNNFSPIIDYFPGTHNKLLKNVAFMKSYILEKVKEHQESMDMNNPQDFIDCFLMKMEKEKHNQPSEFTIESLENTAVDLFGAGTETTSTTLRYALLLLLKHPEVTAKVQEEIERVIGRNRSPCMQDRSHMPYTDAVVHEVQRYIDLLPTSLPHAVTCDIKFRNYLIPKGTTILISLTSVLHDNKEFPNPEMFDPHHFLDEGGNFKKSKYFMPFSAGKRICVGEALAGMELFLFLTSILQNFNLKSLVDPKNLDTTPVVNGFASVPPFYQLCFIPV
Description: as §1, §2, §3

[4] = target: T1, human cytochrome P450 CYP19 (Homo sapiens, UniProt P11511); test: Inhibition of human cytochrome P450 CYP19 (aromatase), testosterone substrate, estradiol enzyme immunoassay; assay type: biochemical; details: 62.5 μM testosterone, 20 minutes at 37° C.; α-naphthoflavone 0-3.2 μM, aminoglutethimide 0-9 μM final concentration; FIG. 6, 7
T1 construct: purchased BD Science (Gentest)
T1 sequence (P11511 1-503): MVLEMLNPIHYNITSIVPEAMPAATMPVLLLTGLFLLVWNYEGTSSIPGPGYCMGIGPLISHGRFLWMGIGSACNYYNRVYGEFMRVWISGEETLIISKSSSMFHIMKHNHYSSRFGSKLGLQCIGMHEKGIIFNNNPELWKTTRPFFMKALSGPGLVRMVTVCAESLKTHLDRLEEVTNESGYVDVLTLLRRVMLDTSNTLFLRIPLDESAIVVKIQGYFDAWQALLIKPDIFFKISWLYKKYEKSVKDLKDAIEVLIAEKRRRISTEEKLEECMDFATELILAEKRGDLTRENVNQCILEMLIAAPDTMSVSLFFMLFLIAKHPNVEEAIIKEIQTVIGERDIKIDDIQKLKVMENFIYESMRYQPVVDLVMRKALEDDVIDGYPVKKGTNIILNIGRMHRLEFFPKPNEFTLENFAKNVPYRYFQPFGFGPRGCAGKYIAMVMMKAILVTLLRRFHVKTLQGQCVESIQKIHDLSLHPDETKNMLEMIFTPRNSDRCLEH
Description: as §1, with “The” for “Purified anti-fluorescein antibodies obtained using as the antigen a protein cross-linked using the X position of fluorescein were diluted with 50 mM carbonic acid buffer (pH 9.6) to a concentration of 1 μg/ml (antibody adsorption liquid), and 100 μL per well was poured into Corning Costar microtiter plates (polystyrene 96-well type). The”

[5] = target: T2, pig cytochrome P450 CYP19 (133Ile) (Sus scrofa, UniProt P79430); test: Inhibition of pig cytochrome P450 CYP19 (133Ile), testosterone substrate, estradiol enzyme immunoassay; assay type: biochemical
T2 construct: made in house
T2 sequence (P79430 1-503): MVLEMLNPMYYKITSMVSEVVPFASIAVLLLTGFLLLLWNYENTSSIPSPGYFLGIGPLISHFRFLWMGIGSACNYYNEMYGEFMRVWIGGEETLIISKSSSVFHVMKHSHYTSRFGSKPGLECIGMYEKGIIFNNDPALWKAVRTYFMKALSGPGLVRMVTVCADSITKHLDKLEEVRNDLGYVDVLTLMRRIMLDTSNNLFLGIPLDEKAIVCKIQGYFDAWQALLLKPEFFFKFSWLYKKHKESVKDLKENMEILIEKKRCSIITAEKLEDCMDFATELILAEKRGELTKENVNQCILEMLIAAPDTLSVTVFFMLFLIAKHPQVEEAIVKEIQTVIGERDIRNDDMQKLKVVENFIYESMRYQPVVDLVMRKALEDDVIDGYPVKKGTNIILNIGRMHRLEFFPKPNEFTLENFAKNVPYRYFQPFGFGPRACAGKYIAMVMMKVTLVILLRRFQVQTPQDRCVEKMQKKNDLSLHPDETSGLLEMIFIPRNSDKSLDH
Description: as §1, with “Purified anti-estradiol” for “Purified anti-fluorescein”, “the 3rd” for “the X”, “of estradiol” for “of fluorescein”, “diluted in” for “diluted with”, “10% saccharose.” for “10% sucrose.”
(§4) A placental system expressing pig cytochrome P450 CYP19 was prepared according to the methods described in Mol. Endocrinol. Vol. 16, pp 1456-1468 (2002), and a mutation introduced replacing isoleucine 133 with methionine or alanine according to ordinary methods. […]

[6] = target: T3, pig cytochrome P450 CYP19 (133Met) (Sus scrofa, UniProt P79430, I133M); test: Inhibition of pig cytochrome P450 CYP19 (133Met), testosterone substrate, estradiol enzyme immunoassay; assay type: biochemical; details: 62.5 μM testosterone; 0-3.2 μM final concentration; FIG. 16
T3 construct: made in house
T3 sequence (P79430 1-503 I133M): T2 sequence (P79430 1-503) with I133M
Description: as §1, with “Purified anti-estradiol” for “Purified anti-fluorescein”, “the 3rd” for “the X”, “of estradiol” for “of fluorescein”, “diluted in” for “diluted with”, “10% saccharose.” for “10% sucrose.”
as §4

SMILES: O=c1c(-c2ccc(O)cc2)coc2cc(O)cc(O)c12 [genistein]
- inhibition of 17β-hydroxysteroid dehydrogenase (relationship between solution concentration and absorbance at 450 nm) [1]: the stronger the inhibition of 17β-hydroxysteroid dehydrogenase

SMILES: Nc1ccc(S(=O)(=O)Nc2ccnn2-c2ccccc2)cc1 [sulfaphenazole]
- inhibition of human cytochrome P450 CYP2C9 (359Leu) (concentration vs absorbance at 450 nm) [2]: the greater the inhibition of the two types of human cytochrome P450 CYP2C9
- inhibition of human cytochrome P450 CYP2C9 (359Ile) (concentration vs absorbance at 450 nm) ([3]; 30 μM dibenzylfluorescein, 0-1.2 μM final concentration, FIG. 19): the greater the inhibition of the two types of human cytochrome P450 CYP2C9
- difference between inhibition-dose curves of the two enzyme preparations ([3]; human CYP2C9 (359Ile) versus (359Leu), FIGS. 19 and 20): obvious differences between the sulfaphenazole inhibition-dose curves

SMILES: O=c1cc(-c2ccccc2)oc2c1ccc1ccccc12 [α-naphthoflavone]
- inhibition of cytochrome P450 CYP19 (relationship between solution concentration and absorbance at 450 nm) [4]: the greater the inhibition of cytochrome P450 CYP19
- inhibition of pig cytochrome P450 CYP19 (133Ile) (concentration vs absorbance at 450 nm) ([5]; 62.5 μM testosterone, 0-3.2 μM final concentration, FIG. 15): the greater the inhibition of pig cytochrome P450 CYP19
- difference in degree of inhibition between preparation (133Ile) and preparation (133Met) ([5]; pig CYP19 (133Ile) versus (133Met), FIGS. 15 and 16): the degree of inhibition differed greatly
- inhibition of pig cytochrome P450 CYP19 (133Met) (concentration vs absorbance at 450 nm) [6]: the greater the inhibition of pig cytochrome P450 CYP19
